# System: HBV
# Experiment: HBV replication inhibition assay (BDNA assay) in HepG2.2.15 cells
# Assay type: cell-based
# Conditions: HBV replication assay (BDNA assay), HepG2.2.15 cells; read-out: DNA EC50
# Experimental: HBV replication inhibition by the disclosed compounds were determined in cells infected or transfected with HBV or cells with stably integrated HBV, such as HepG2.2.15 cells (Sells et al. 1987). In this example, HepG2.2.15 cells were maintained in cell culture medium containing 10% fetal bovine serum (FBS), Geneticin, L-glutamine, penicillin and streptomycin. HepG2.2.15 cells were seeded in 96-well plates at a density of 40,000 cells/well and were treated with serially diluted compounds at a final DMSO concentration of 0.5% either alone or in combination by adding drugs in a checker box format. Cells were incubated with compounds for three days, after which medium was removed and fresh medium containing compounds was added to cells and incubated for another three days. At day 6, supernatant was removed and treated with DNase at 37° C. for 60 minutes, followed by enzyme inactivation at 75° C. for 15 minutes. Encapsidated HBV DNA was released from the virions and covalently linked HBV polymerase by incubating in lysis buffer (Affymetrix QS0010) containing 2.5 μg proteinase K at 50° C. for 40 minutes. HBV DNA was denatured by addition of 0.2 M NaOH and detected using a branched DNA (BDNA) QuantiGene assay kit according to manufacturer recommendation (Affymetrix). HBV DNA levels were also quantified using qPCR, based on amplification of encapsidated HBV DNA extraction with QuickExtraction Solution (Epicentre Biotechnologies) and amplification of HBV DNA using HBV specific PCR probes that can hybridize to HBV DNA and a fluorescently labeled probe for quantitation. In addition, cell viability of HepG2.2.15 cells incubated with test compounds alone or in combination was determined by using CellTitre-Glo reagent according to the manufacturer protocol (Promega). The mean background signal from wells containing only culture medium was subtracted from all other samples, and percent inhibition at each compound concentration was calculated by normalizing to signals from HepG2.2.15 cells treated with 0.5% DMSO using equation E1. % inhibition=(DMSOave−Xi)/DMSOave×100% E1: […]
# where DMSOave is the mean signal calculated from the wells that were treated with DMSO control (0% inhibition control) and Xi is the signal measured from the individual wells. EC50 values, effective concentrations that achieved 50% inhibitory effect, were determined by non-linear fitting using Graphpad Prism software (San Diego, Calif.) and equation E2: Y=Y min+(Y max−Y min)/(1+10(Log EC50−X)×HillSlope) E2: […]
# where Y represents percent inhibition values and X represents the logarithm of compound concentrations.
# Selected disclosed compounds were assayed in the HBV replication assay (BDNA assay), as described above, and a representative group of these active compounds is shown in Table 7. […] In Table 7, “A” represents 1<EC50≤100; “B” represents 100<EC50≤500; “C” represents 500<EC50≤1000; and “D” represents EC50>1000.
row,Compound,EC50 [nM]
1,"CN1OC(CO)Cn2nc3c(c2C1=O)CN(C(=O)Nc1ccc(F)c(C(F)(F)F)c1)CC3 (single isomer, unassigned) [Compound 011_E2, (R*)—N-(4-fluoro-3-(trifluoromethyl)phenyl)-4-(hydroxymethyl)-2-methyl-1-oxo-1,4,5,8,9,11-hexahydropyrido[4′,3′:3,4]pyrazolo[5,1-d][1,2,5]oxadiazepine-10(2H)-carboxamide]",1 to 100

# Same assay, conditions: Hepatitis B virus, HepG2.2.15, HBV replication assay (BDNA assay), HepG2.2.15 cells; read-out: DNA EC50
row,Compound,EC50 [nM]
1,"C[C@@H]1Cc2nn3c(c2CN1C(=O)Nc1cc(C(F)(F)F)ccc1F)C(=O)N(C)O[C@H](CO)C3 (relative stereo) [Compound 157_D1, (4S*,9R)—N-[2-fluoro-5-(trifluoromethyl)phenyl]-4-(hydroxymethyl)-2,9-dimethyl-1-oxo-5,8,9,11-tetrahydro-4H-pyrido[2,3]pyrazolo[2,4-d][1,2,5]oxadiazepine-10-carboxamide]",1 to 100
2,"C[C@@H]1Cc2nn3c(c2CN1C(=O)Nc1cc(C(F)(F)F)ccc1F)C(=O)N(C)O[C@@H](CO)C3 (relative stereo) [Compound 157_D2, (4R*,9R)—N-[2-fluoro-5-(trifluoromethyl)phenyl]-4-(hydroxymethyl)-2,9-dimethyl-1-oxo-5,8,9,11-tetrahydro-4H-pyrido[2,3]pyrazolo[2,4-d][1,2,5]oxadiazepine-10-carboxamide]",1 to 100
3,"CN1OC(CO)Cn2nc3c(c2C1=O)CN(C(=O)Nc1ccc(F)c(C(F)(F)F)c1)CC3 (single isomer, unassigned) [Compound 011_E1, (S*)—N-(4-fluoro-3-(trifluoromethyl)phenyl)-4-(hydroxymethyl)-2-methyl-1-oxo-1,4,5,8,9,11-hexahydropyrido[4′,3′:3,4]pyrazolo[5,1-d][1,2,5]oxadiazepine-10(2H)-carboxamide]",1 to 100
4,"CN1OC(CO)Cn2nc3c(c2C1=O)CN(C(=O)Nc1cc(F)c(F)c(Cl)c1)CC3 (single isomer, unassigned) [Compound 028_E1, (S*)—N-(3-chloro-4,5-difluorophenyl)-4-(hydroxymethyl)-2-methyl-1-oxo-1,4,5,8,9,11-hexahydropyrido[4′,3′:3,4]pyrazolo[5,1-d][1,2,5]oxadiazepine-10(2H)-carboxamide]",1 to 100
5,"CN1OC(CO)Cn2nc3c(c2C1=O)CN(C(=O)Nc1ccc(F)c(Cl)c1)CC3 (single isomer, unassigned) [Compound 031_E1, (S*)—N-(3-chloro-4-fluorophenyl)-4-(hydroxymethyl)-2-methyl-1-oxo-1,4,5,8,9,11-hexahydropyrido[4′,3′:3,4]pyrazolo[5,1-d][1,2,5]oxadiazepine-10(2H)-carboxamide]",1 to 100
6,"CN1OC(CO)Cn2nc3c(c2C1=O)CN(C(=O)Nc1ccc(F)c(Br)c1)CC3 (single isomer, unassigned) [Compound 032_E1, (S*)—N-(3-bromo-4-fluorophenyl)-4-(hydroxymethyl)-2-methyl-1-oxo-1,4,5,8,9,11-hexahydropyrido[4′,3′:3,4]pyrazolo[5,1-d][1,2,5]oxadiazepine-10(2H)-carboxamide]",1 to 100
7,"CN1OC(CO)Cn2nc3c(c2C1=O)CN(C(=O)Nc1ccnc(Br)c1F)CC3 (single isomer, unassigned) [Compound 033_E1, (S*)—N-(2-bromo-3-fluoropyridin-4-yl)-4-(hydroxymethyl)-2-methyl-1-oxo-1,4,5,8,9,11-hexahydropyrido[4′,3′:3,4]pyrazolo[5,1-d][1,2,5]oxadiazepine-10(2H)-carboxamide]",1 to 100
8,"CN1OC(CO)Cn2nc3c(c2C1=O)CN(C(=O)Nc1ccc(F)c(C#N)c1)CC3 (single isomer, unassigned) [Compound 034_E1, (S*)—N-(3-cyano-4-fluorophenyl)-4-(hydroxymethyl)-2-methyl-1-oxo-1,4,5,8,9,11-hexahydropyrido[4′,3′:3,4]pyrazolo[5,1-d][1,2,5]oxadiazepine-10(2H)-carboxamide]",1 to 100
9,"Cc1cc(NC(=O)N2CCc3nn4c(c3C2)C(=O)N(C)OC(CO)C4)ccc1F (single isomer, unassigned) [Compound 035_E1, (S*)—N-(4-fluoro-3-methylphenyl)-4-(hydroxymethyl)-2-methyl-1-oxo-1,4,5,8,9,11-hexahydropyrido[4′,3′:3,4]pyrazolo[5,1-d][1,2,5]oxadiazepine-10(2H)-carboxamide]",1 to 100
10,"CN1OC(CF)Cn2nc3c(c2C1=O)CN(C(=O)Nc1cccc(Cl)c1)CC3 (single isomer, unassigned) [Compound 037_E1, (S*)—N-(3-chlorophenyl)-4-(fluoromethyl)-2-methyl-1-oxo-1,4,5,8,9,11-hexahydropyrido[4′,3′:3,4]pyrazolo[5,1-d][1,2,5]oxadiazepine-10(2H)-carboxamide]",1 to 100
11,"CN1OC(CF)Cn2nc3c(c2C1=O)CN(C(=O)Nc1ccc(F)c(Cl)c1)CC3 (single isomer, unassigned) [Compound 038_E1, (S*)—N-(3-chloro-4-fluorophenyl)-4-(fluoromethyl)-2-methyl-1-oxo-1,4,5,8,9,11-hexahydropyrido[4′,3′:3,4]pyrazolo[5,1-d][1,2,5]oxadiazepine-10(2H)-carboxamide]",1 to 100
12,"CN1OC(CF)Cn2nc3c(c2C1=O)CN(C(=O)Nc1ccc(F)c(C(F)(F)F)c1)CC3 (single isomer, unassigned) [Compound 039_E1, (S*)—N-(4-fluoro-3-(trifluoromethyl)phenyl)-4-(fluoromethyl)-2-methyl-1-oxo-1,4,5,8,9,11-hexahydropyrido[4′,3′:3,4]pyrazolo[5,1-d][1,2,5]oxadiazepine-10(2H)-carboxamide]",1 to 100
13,"CN1OC(CF)Cn2nc3c(c2C1=O)CN(C(=O)Nc1ccc(F)c(Br)c1)CC3 (single isomer, unassigned) [Compound 040_E1, (S*)—N-(3-bromo-4-fluorophenyl)-4-(fluoromethyl)-2-methyl-1-oxo-1,4,5,8,9,11-hexahydropyrido[4′,3′:3,4]pyrazolo[5,1-d][1,2,5]oxadiazepine-10(2H)-carboxamide]",1 to 100
14,"CN1OC(CF)Cn2nc3c(c2C1=O)CN(C(=O)Nc1ccnc(Br)c1F)CC3 (single isomer, unassigned) [Compound 041_E1, (S*)—N-(2-bromo-3-fluoropyridin-4-yl)-4-(fluoromethyl)-2-methyl-1-oxo-1,4,5,8,9,11-hexahydropyrido[4′,3′:3,4]pyrazolo[5,1-d][1,2,5]oxadiazepine-10(2H)-carboxamide]",1 to 100
15,"CN1OC(CF)Cn2nc3c(c2C1=O)CN(C(=O)Nc1ccc(F)c(C#N)c1)CC3 (single isomer, unassigned) [Compound 042_E1, (S*)—N-(3-cyano-4-fluorophenyl)-4-(fluoromethyl)-2-methyl-1-oxo-1,4,5,8,9,11-hexahydropyrido[4′,3′:3,4]pyrazolo[5,1-d][1,2,5]oxadiazepine-10(2H)-carboxamide]",1 to 100
16,"Cc1cc(NC(=O)N2CCc3nn4c(c3C2)C(=O)N(C)OC(CF)C4)ccc1F (single isomer, unassigned) [Compound 043_E1, (S*)—N-(4-fluoro-3-methylphenyl)-4-(fluoromethyl)-2-methyl-1-oxo-1,4,5,8,9,11-hexahydropyrido[4′,3′:3,4]pyrazolo[5,1-d][1,2,5]oxadiazepine-10(2H)-carboxamide]",1 to 100
17,"CN1OC(CF)Cn2nc3c(c2C1=O)CN(C(=O)Nc1cc(F)c(F)c(Cl)c1)CC3 (single isomer, unassigned) [Compound 044_E1, (S*)—N-(3-chloro-4,5-difluorophenyl)-4-(fluoromethyl)-2-methyl-1-oxo-1,4,5,8,9,11-hexahydropyrido[4′,3′:3,4]pyrazolo[5,1-d][1,2,5]oxadiazepine-10(2H)-carboxamide]",1 to 100
18,"CCN1OC(CO)Cn2nc3c(c2C1=O)CN(C(=O)Nc1ccc(F)c(Cl)c1)CC3 (single isomer, unassigned) [Compound 060_E1, (S*)—N-(3-chloro-4-fluorophenyl)-2-ethyl-4-(hydroxymethyl)-1-oxo-1,4,5,8,9,11-hexahydropyrido[4′,3′:3,4]pyrazolo[5,1-d][1,2,5]oxadiazepine-10(2H)-carboxamide]",1 to 100

# Source: patent publication US10987359B2, “Oxadiazepinone derivatives and methods of treating hepatitis B infections” (priority 2016, dated 2021)
